Values joined by “and” are separate entries in the source; they are usually repeats but may differ in a detail not shown here. Equal values may be shown once. Where a name gives a salt, the structure may show the parent alone. Read-outs that look alike come from different tables or passages of the source.
How the values were obtained:
activated human C1 = target: T1, activated human C1 (Homo sapiens, UniProt P09871); test: Test Code 026 (C1 inhibitor); assay type: biochemical; settings: twofold serial dilutions; higher well number indicates higher activity
T1 sequence (P09871 438-688 limits assumed): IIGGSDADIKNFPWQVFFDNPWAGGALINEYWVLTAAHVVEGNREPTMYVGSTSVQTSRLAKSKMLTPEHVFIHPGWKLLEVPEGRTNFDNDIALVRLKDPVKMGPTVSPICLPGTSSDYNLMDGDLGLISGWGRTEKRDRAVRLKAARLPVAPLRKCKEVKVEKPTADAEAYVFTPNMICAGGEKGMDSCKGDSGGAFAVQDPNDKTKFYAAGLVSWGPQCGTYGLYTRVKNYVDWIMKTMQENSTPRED
T1 sequence (P09871 16-437 limits assumed): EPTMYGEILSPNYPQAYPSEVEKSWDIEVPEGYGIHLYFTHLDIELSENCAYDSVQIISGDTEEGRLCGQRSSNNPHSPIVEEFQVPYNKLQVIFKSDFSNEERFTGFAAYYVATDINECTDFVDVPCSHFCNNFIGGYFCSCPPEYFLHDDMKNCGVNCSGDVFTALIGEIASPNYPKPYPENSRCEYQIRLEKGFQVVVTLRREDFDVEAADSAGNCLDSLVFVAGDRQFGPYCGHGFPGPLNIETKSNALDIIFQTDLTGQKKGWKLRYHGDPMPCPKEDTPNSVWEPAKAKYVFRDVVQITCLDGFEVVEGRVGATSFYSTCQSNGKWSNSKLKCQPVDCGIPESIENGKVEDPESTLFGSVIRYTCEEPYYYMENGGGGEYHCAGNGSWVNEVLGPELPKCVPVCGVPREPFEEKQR
Method: (§1) An active inhibitor protects C2 from C1 and C4; (ii) Cap 50 Test--Here, appropriate amounts of the test compound are added to a pool of guinea pig serum in vitro, after which the undiluted serum capillary tube assay referred to above is run. The concentration of compound inhibiting 50% is reported; and (iii) Guinea Pig Intraperitoneal Test (GPIP)--Guinea pigs weighing about 300 g. are dosed intraperitoneally (i.p.) with 200 mg./kg. of the test compound dissolved in saline and adjusted to pH 7-8. Approximately 0.4 ml. blood samples, taken by orbital sinus puncture 30 minutes and one hour after injections, are collected directly into centrifuge tubes; 5 ml. blood samples, taken by decapitation 2 hours after injection are collected directly into beakers. The samples are allowed to clot, centrifuged, and the resultant sera are assayed for complement activity using the capillary complement assay. Percent inhibition are calculated by comparison with simultaneous controls.

[1] = tested on: complement activity of sera; test: Guinea Pig Intraperitoneal Test (GPIP); settings: Cavia porcellus, ip, 200 mg./kg. i.p., read-out: In Vivo Activity (Guinea Pig) Intraperitoneal % Inhibition
Method: as §1, with “[…],” for “taken by orbital sinus puncture 30 minutes and one hour after injections,”, “taken by decapitation 2 hours after injection are collected directly into” left out

CCOC(=O)COc1cc(OS(=O)(=O)O)c2c(=O)c(O[C@@H]3O[C@H](CO[C@@H]4O[C@@H](C)[C@H](OS(=O)(=O)O)[C@@H](OS(=O)(=O)O)[C@H]4OS(=O)(=O)O)[C@@H](OS(=O)(=O)O)[C@H](OS(=O)(=O)O)[C@H]3OS(=O)(=O)O)c(-c3ccc(OS(=O)(=O)O)c(OS(=O)(=O)O)c3)oc2c1 [7-O-Carbethoxymethyl-rutin nona(H-sulfate)sodium salt]
In vitro Activity 026 (activity in wells, serial dilution assay) (activated human C1): 12 wells and 10 wells | inhibition at 200 mg/kg ([1]; Time 2 hours): 39% | inhibition at 200 mg/kg ([1]; Time 6 hours): 43% | inhibition at 200 mg/kg ([1]; Time 24 hours): 55%

From patent US4342752A, “Carbalkoxymethyl derivatives of rutin poly(H-)sulfate and method of use” (American Cyanamid Company, priority 1981, dated 1982)
